By IC50 is commonly meant the concentration needed to halve the response being measured.

Structures are written as SMILES.

The first experiment deals with T1, Chk1 (Homo sapiens, UniProt O14757).
T1 construct: purchased Upstate Biotechnology
T1 sequence (O14757 1-476): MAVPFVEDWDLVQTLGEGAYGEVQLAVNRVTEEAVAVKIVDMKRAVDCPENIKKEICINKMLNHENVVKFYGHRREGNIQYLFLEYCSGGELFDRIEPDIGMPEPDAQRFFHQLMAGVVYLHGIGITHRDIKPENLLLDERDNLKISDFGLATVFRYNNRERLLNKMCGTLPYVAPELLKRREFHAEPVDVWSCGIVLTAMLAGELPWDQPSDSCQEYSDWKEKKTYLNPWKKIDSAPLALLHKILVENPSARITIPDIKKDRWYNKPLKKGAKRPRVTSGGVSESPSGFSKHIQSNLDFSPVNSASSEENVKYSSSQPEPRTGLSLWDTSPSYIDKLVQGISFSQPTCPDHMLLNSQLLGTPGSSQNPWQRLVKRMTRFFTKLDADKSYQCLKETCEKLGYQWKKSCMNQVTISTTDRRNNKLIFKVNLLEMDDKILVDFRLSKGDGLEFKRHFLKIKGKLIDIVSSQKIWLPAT
Kind of experiment: Chk1 kinase assay: incorporation of γ-33P ATP into immobilized myelin basic protein. The class given is biochemical. Conditions: Table 11, Chk1 only; class symbols A-D; read-out: Chk1 IC50. In short, it runs like this: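 Plates coated with MBP, then kinase reactions in Hepes pH 7.6 buffer with 10 mM MgCl2 and 1% DMSO were started by adding unlabeled plus γ-33P ATP (10 μM for Chk1 at 10 nM enzyme; 30 μM for Chk2 at 20 nM enzyme). After 1 h at room temperature, plates were washed and counted.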
For `Nc1ncc(-c2cccc(CNC(=O)c3cccs3)c2)nc1C(=O)N[C@H]1CCCNC1` [Example 938, 3-amino-N-[(3S)-piperidin-3-yl]-6-(3-{[(2-thienylcarbonyl)amino]methyl}phenyl)pyrazine-2-carboxamide], the IC50 is below 50 nM.
Same read-out and setting: to `Nc1ncc(-c2cccc(C(=O)NCc3cc(F)cc(F)c3)c2)nc1C(=O)N[C@H]1CCCNC1` [Example 868, 3-amino-6-[3-({[(3,5-difluorophenyl)methyl]amino}carbonyl)phenyl]-N-[(3S)-piperidin-3-yl]pyrazine-2-carboxamide] belongs below 50 nM.
Turning to `Nc1ncc(-c2cccc(C(=O)NCc3ccc(Br)cc3F)c2)nc1C(=O)N[C@H]1CCCNC1` [Example 871, 3-amino-6-[3-({[(4-bromo-2-fluorophenyl)methyl]amino}carbonyl)phenyl]-N-[(3S)-piperidin-3-yl]pyrazine-2-carboxamide], the IC50 is below 50 nM.
Same read-out and setting: the figure for `Cc1ccc(C)c(CNC(=O)c2cccc(-c3cnc(N)c(C(=O)N[C@H]4CCCNC4)n3)c2)c1` [Example 1036, 3-amino-6-[3-({[(2,5-dimethylphenyl)methyl]amino}carbonyl)phenyl]-N-[(3S)-piperidin-3-yl]pyrazine-2-carboxamide] is below 50 nM; for `Nc1ncc(-c2cccc(C(=O)NCc3ccc(F)cc3)c2)nc1C(=O)N[C@H]1CCCNC1` [Example 842, 3-amino-6-[3-({[(4-fluorophenyl)methyl]amino}carbonyl)phenyl]-N-[(3S)-piperidin-3-yl]pyrazine-2-carboxamide] it is below 50 nM; for `Nc1ncc(-c2cccc(C(=O)NCc3ccc(F)cc3C(F)(F)F)c2)nc1C(=O)N[C@H]1CCCNC1` [Example 873, 3-amino-6-{3-[({[4-fluoro-2-(trifluoromethyl)phenyl]methyl}amino)carbonyl]phenyl}-N-[(3S)-piperidin-3-yl]pyrazine-2-carboxamide] it is below 50 nM.

The same experiment, now with this note: Table 11; Chk1 only; read-out: Chk1 IC50.
Consider `CNC(=O)c1nc(-c2cccc(CNC3CCc4c(F)ccc(F)c43)c2)cnc1N` (stereo not shown) [Example 469, 3-amino-6-(3-{[(4,7-difluoro-2,3-dihydro-1H-inden-1-yl)amino]methyl}phenyl)-N-methylpyrazine-2-carboxamide], for which the IC50 lay within 50 to 1000 nM.
On the same count and under the same terms, the figure for `CNC(=O)c1nc(-c2cc(C(=O)N[C@@H]3CCNC3)cc(C(=O)N[C@@H]3CCc4ccccc43)c2)cnc1N` [Example 797, 5-{5-amino-6-[(methylamino)carbonyl]pyrazin-2-yl}-N-[(1R)-2,3-dihydro-1H-inden-1-yl]-N′-[(3R)-pyrrolidin-3-yl]benzene-1,3-dicarboxamide] is 50 to 1000 nM; for `Nc1ncc(-c2cccc(C(=O)NCc3ccc(Cl)cc3)c2)nc1C(=O)N[C@H]1CCNC1` [Example 760, 3-amino-6-[3-({[(4-chlorophenyl)methyl]amino}carbonyl)phenyl]-N-[(3S)-pyrrolidin-3-yl]pyrazine-2-carboxamide] it is below 50 nM.
On the same count and under the same terms, to `Nc1ncc(-c2cccc(C(=O)NCc3ccccc3)c2)nc1C(=O)N1CCC(N)CC1` [Example 618, 3-{5-amino-6-[(4-aminopiperidin-1-yl)carbonyl]pyrazin-2-yl}-N-(phenylmethyl)benzamide] belongs at least 10000 nM; to `Nc1ncc(-c2cccc(CN[C@H]3CCc4ccccc43)c2)nc1C(=O)NC1CC1` [Example 548, 3-amino-N-cyclopropyl-6-(3-{[(1S)-2,3-dihydro-1H-inden-1-ylamino]methyl}phenyl)pyrazine-2-carboxamide], 50 to 1000 nM.
Still for that read-out and setting: to `CNC(=O)c1nc(-c2cccc(CNC3CCc4c(F)ccc(Br)c43)c2)cnc1N` (stereo not shown) [Example 484, 3-amino-6-(3-{[(7-bromo-4-fluoro-2,3-dihydro-1H-inden-1-yl)amino]methyl}phenyl)-N-methylpyrazine-2-carboxamide] belongs 50 to 1000 nM.

The experiment is the same for the next values; noted with them: read-out: Chk1 IC50.
With `CNC(=O)c1nc(-c2noc(-c3ccccc3)n2)cnc1N` [Example 69, 3-amino-N-methyl-6-(5-phenyl-1,2,4-oxadiazol-3-yl)pyrazine-2-carboxamide], the IC50 is at least 10000 nM.
Same read-out and setting: to `CNC(=O)c1nc(-c2cccc(CNC(=O)COc3ccc(C(C)C)cc3)c2)cnc1N` [Example 346, 3-amino-N-methyl-6-(3-{[({[4-(1-methylethyl)phenyl]oxy}acetyl)amino]methyl}phenyl)pyrazine-2-carboxamide] belongs 50 to 1000 nM; to `CCNC(=O)c1nc(-c2cccc(C(=O)NCc3c(F)cccc3Cl)c2)cnc1N` [Example 273, 3-amino-6-[3-({[(2-chloro-6-fluorophenyl)methyl]amino}carbonyl)phenyl]-N-ethylpyrazine-2-carboxamide], 1000 to 10000 nM; to `CNC(=O)c1nc(-c2cccc(C(=O)N[C@@H]3CCN(Cc4ccccc4)C3)c2)cnc1NCc1ccccc1` [Example 363, N-methyl-3-[(phenylmethyl)amino]-6-[3-({[(3R)-1-(phenylmethyl)pyrrolidin-3-yl]amino}carbonyl)phenyl]pyrazine-2-carboxamide], 50 to 1000 nM.
On the same count and under the same terms, the figure for `CNC(=O)c1nc(-c2cccc(C(=O)NCc3ccc(F)c(F)c3F)c2)cnc1N` [Example 281, 3-amino-N-methyl-6-[3-({[(2,3,4-trifluorophenyl)methyl]amino}carbonyl)phenyl]pyrazine-2-carboxamide] is 50 to 1000 nM; for `CNC(=O)c1cc(-c2cccc(CO)c2)cnc1N` [Example 35] it is 50 to 1000 nM; for `CNC(=O)c1nc(-c2cccc(C(=O)NCc3cccc(-c4ccccc4)c3)c2)cnc1N` [Example 224, 3-amino-6-(3-{[(biphenyl-3-ylmethyl)amino]carbonyl}phenyl)-N-methylpyrazine-2-carboxamide] it is 50 to 1000 nM.
Still for that read-out and setting: the figure for `CNC(=O)c1nc(-c2cccc(C(=O)NCc3cc(F)cc4c3OCOC4)c2)cnc1N` [Example 208, 3-amino-6-[3-({[(6-fluoro-4H-1,3-benzodioxin-8-yl)methyl]amino}carbonyl)phenyl]-N-methylpyrazine-2-carboxamide] is 50 to 1000 nM.
As for `CNC(=O)c1nc(-c2ccc(OC3CCCCO3)cc2)cnc1N` (stereo not shown) [Example 235, 3-amino-N-methyl-6-[4-(tetrahydro-2H-pyran-2-yloxy)phenyl]pyrazine-2-carboxamide], the IC50 lay in the range of 50 to 1000 nM.
The same measure, in the same setting: to `CNC(=O)c1nc(-c2cccc(CNCc3ccc(F)cc3F)c2)cnc1N` [Example 387, 3-amino-6-[3-({[(2,4-difluorophenyl)methyl]amino}methyl)phenyl]-N-methylpyrazine-2-carboxamide] belongs below 50 nM; to `CNC(=O)c1nc(-c2cccc(CNCc3ccc(S(C)(=O)=O)cc3)c2)cnc1N` [Example 392, 3-amino-N-methyl-6-{3-[({[4-(methylsulfonyl)phenyl]methyl}amino)methyl]phenyl}pyrazine-2-carboxamide], 50 to 1000 nM; to `CNC(=O)c1nc(-c2cccc(C(=O)NCc3ccc(F)c(F)c3)c2)cnc1N` [Example 288, 3-amino-6-[3-({[(3,4-difluorophenyl)methyl]amino}carbonyl)phenyl]-N-methylpyrazine-2-carboxamide], 50 to 1000 nM.
`CNC(=O)c1nc(-c2cccc(C(=O)NCc3ccc(Br)cc3)c2)cnc1N` [Example 304, 3-amino-6-[3-({[(4-bromophenyl)methyl]amino}carbonyl)phenyl]-N-methylpyrazine-2-carboxamide]: the IC50 fell in the range of 50 to 1000 nM.

The record behind these values is patent US7704995B2 (Exelixis, Inc., priority 2003, dated 2010).
